Measurements reported in patent publication US12673954B2 (BRISTOL-MYERS SQUIBB COMPANY, priority 2021, dated 2026).
Where two headings read alike, the source gives them in different places.

Columns and labels:
[1] = system: IRF pathway, THP1-Dual™ cells; assay: STING reporter assay in THP1-Dual cells, IRF pathway (Lucia luciferase, QUANTI-Luc); format: cell-based, human; details: THP1-Dual cells, 10% human plasma, 20 hours, Lucia luciferase, 100% activation = 100 μM cGAMP, read-out: IRF (EC50 μM)
In short: (§1)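 Activation normalised between DMSO-only baseline and 100 μM cGAMP maximum, after 20 h compound exposure (starting at 100 μM final) at 37° C, 5% CO2. Supernatant SEAP (QUANTI-Blue, OD620) reports NF-κB; secreted luciferase (QUANTI-Luc, RLU at 5 min) reports IRF.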

[2] = system: NF-κB pathway, THP1-Dual™ cells; assay: STING reporter assay in THP1-Dual cells, NF-κB pathway (SEAP, QUANTI-Blue); format: cell-based, human; details: THP1-Dual cells, 10% human plasma, 20 hours, SEAP, 100% activation = 100 μM cGAMP, read-out: NFkB (EC50 μM)
In short: as §1

EC50 ([1]; Homo sapiens, THP1-Dual, 20 h)	EC50 ([2]; Homo sapiens, THP1-Dual, 20 h)	EC50 [1]	EC50 [2]	Compound
5.1 µM	3.1 µM			COC(=O)c1cccc2cc(Cn3cnc4ccncc4c3=O)oc12 [EXAMPLE 6, Methyl 2-((4-oxopyrido[4,3-d]pyrimidin-3(4H)-yl)methyl)benzofuran-7-carboxylate]
		1.3 µM	1.5 µM	CC(NC(=O)c1cnn2cccnc12)c1cc2cc(F)cc(C(=O)OCC(F)(F)F)c2o1 (single isomer, unassigned) [EXAMPLE 328, 2,2,2-Trifluoroethyl 5-fluoro-2-(1-(pyrazolo[1,5-a]pyrimidine-3-carboxamido)ethyl)benzofuran-7-carboxylate]
6.7 µM	4.8 µM			O=C(OCCCN1CCOCC1)c1cc(Cl)cc2cc(CNC(=O)c3cnn4cccnc34)oc12 [EXAMPLE 256, 3-Morpholinopropyl 5-chloro-2-((pyrazolo[1,5-a]pyrimidine-3-carboxamido)methyl)benzofuran-7-carboxylate]
0.34 µM	0.31 µM			O=C(OC1CC(F)(F)C1)c1cc(F)cc2c(Cl)c(CNC(=O)c3cnn4cccnc34)oc12 [EXAMPLE 291, 3,3-Difluorocyclobutyl 3-chloro-5-fluoro-2-((pyrazolo[1,5-a]pyrimidine-3-carboxamido)methyl)benzofuran-7-carboxylate]
		73 µM	79 µM	CC(NC(=O)c1cnn2cccnc12)c1cc2cc(F)cc(C(=O)OCC(F)(F)F)c2o1 (single isomer, unassigned) [EXAMPLE 327, 2,2,2-Trifluoroethyl 5-fluoro-2-(1-(pyrazolo[1,5-a]pyrimidine-3-carboxamido)ethyl)benzofuran-7-carboxylate]
2.2 µM	3 µM			COC(=O)c1cc(C)cc2cc(CNC(=O)c3cnn4cc(C)cnc34)oc12 [Example 90, Methyl 5-methyl-2-((6-methylpyrazolo[1,5-a]pyrimidine-3-carboxamido)methyl)benzofuran-7-carboxylate]
0.5 µM	0.65 µM			O=C(OCC(F)(F)F)c1cc(F)cc2cc(CNC(=O)c3cnn4cccnc34)oc12 [EXAMPLE 231, 2,2,2-Trifluoroethyl 5-fluoro-2-((pyrazolo[1,5-a]pyrimidine-3-carboxamido)methyl)benzofuran-7-carboxylate]
46 µM	70 µM			O=C(OCC1CC1)c1cccc2cc(CN3CCc4ccncc4C3=O)oc12 [EXAMPLE 354, Cyclopropylmethyl 2-((1-oxo-3,4-dihydro-2,7-naphthyridin-2(1H)-yl)methyl)benzofuran-7-carboxylate]
3.8 µM	4.2 µM			CC(OC(=O)c1cc(F)c(F)c2cc(CNC(=O)c3cnn4cccnc34)oc12)C(F)(F)F (centres unmarked) [EXAMPLE 227, 1,1,1-Trifluoropropan-2-yl 4,5-difluoro-2-((pyrazolo[1,5-a]pyrimidine-3-carboxamido)methyl)benzofuran-7-carboxylate]
48 µM	73 µM			COC(=O)c1cccc2cc(Cn3cccc(-c4cnco4)c3=O)oc12 [EXAMPLE 17, Methyl 2-((3-(oxazol-5-yl)-2-oxopyridin-1(2H)-yl)methyl)benzofuran-7-carboxylate]
3.5 µM	3.6 µM			COC(=O)c1cc(C)cc2cc(Cn3ccc4ccncc4c3=O)oc12 [Example 85, Methyl 5-methyl-2-((1-oxo-2,7-naphthyridin-2(1H)-yl)methyl)benzofuran-7-carboxylate]
2.1 µM	3.2 µM			COC(=O)c1cc(F)cc2cc(CNC(=O)c3cnn4ccc(OC)nc34)oc12 [EXAMPLE 40, Methyl 5-fluoro-2-((5-methoxypyrazolo[1,5-a]pyrimidine-3-carboxamido)methyl)benzofuran-7-carboxylate]
3 µM	3.4 µM			Cc1cc(C(=O)O[C@H](C)C(F)(F)F)c2oc(C(C)NC(=O)c3cnn4cccnc34)cc2c1 (stereo partly drawn) [EXAMPLE 276, (R)-1,1,1-Trifluoropropan-2-yl 5-methyl-2-(1-(pyrazolo[1,5-a]pyrimidine-3-carboxamido)ethyl)benzofuran-7-carboxylate]
0.8 µM	0.81 µM			COC(=O)c1cc(C)cc2cc(CNC(=O)c3cncc4cccnc34)oc12 [Example 92, methyl 2-((1,6-naphthyridine-8-carboxamido)methyl)-5-methylbenzofuran-7-carboxylate]
9.2 µM	17 µM			O=C(OC1CC1)c1cccc2cc(CN3CCc4ccncc4C3=O)oc12 [EXAMPLE 207, Cyclopropyl 2-((1-oxo-3,4-dihydro-2,7-naphthyridin-2(1H)-yl)methyl)benzofuran-7-carboxylate]
0.8 µM	0.91 µM			Cc1cc(C(=O)O[C@H](C)C(F)(F)F)c2oc(CNC(=O)c3cnn4cccnc34)cc2c1 [EXAMPLE 271, (R)-1,1,1-Trifluoropropan-2-yl 5-methyl-2-((pyrazolo[1,5-a]pyrimidine-3-carboxamido)methyl)-benzofuran-7-carboxylate]

EC50 ([1]; Homo sapiens, THP1-Dual, 20 h)	EC50 ([2]; Homo sapiens, THP1-Dual, 20 h)	EC50 [1]	EC50 [2]	Compound
33 µM	31 µM			CCC(C)OC(=O)c1cccc2cc(CN3CCc4ccncc4C3=O)oc12 (racemic) [EXAMPLE 208, Sec-butyl 2-((1-oxo-3,4-dihydro-2,7-naphthyridin-2(1H)-yl)methyl)benzofuran-7-carboxylate]
2.2 µM	2.2 µM			Cc1cc(C(=O)O[C@@H](C)C(F)(F)F)c2oc(CNC(=O)c3cnn4cccnc34)cc2c1 [EXAMPLE 272, (S)-1,1,1-Trifluoropropan-2-yl 5-methyl-2-((pyrazolo[1,5-a]pyrimidine-3-carboxamido)methyl)-benzofuran-7-carboxylate]
5.7 µM	6.3 µM			COC(=O)c1cccc2cc(CN3CCc4ccncc4C3=O)oc12 [EXAMPLE 5, Methyl 2-((1-oxo-3,4-dihydro-2,7-naphthyridin-2(1H)-yl)methyl)benzofuran-7-carboxylate]
1.2 µM	0.62 µM			O=C(OCCCCO)c1cc(Cl)cc2cc(CNC(=O)c3cnn4cccnc34)oc12 [EXAMPLE 250, 4-Hydroxybutyl 5-chloro-2-((pyrazolo[1,5-a]pyrimidine-3-carboxamido)methyl)benzofuran-7-carboxylate]
4.2 µM	4.2 µM			O=C(NCc1cc2cc(F)cc(C(=O)OCC(F)(F)F)c2o1)c1cnccn1 [EXAMPLE 229, 2,2,2-Trifluoroethyl 5-fluoro-2-((pyrazine-2-carboxamido)methyl)benzofuran-7-carboxylate]
7.5 µM	7.5 µM			Cc1ccc(C(=O)OC(C)C(F)(F)F)c2oc(CNC(=O)c3cnn4cccnc34)cc12 (centres unmarked) [EXAMPLE 225, 1,1,1-Trifluoropropan-2-yl 4-methyl-2-((pyrazolo[1,5-a]pyrimidine-3-carboxamido)methyl)benzofuran-7-carboxylate]
0.73 µM	0.76 µM			COC(OC(=O)c1cc(C)cc2cc(CNC(=O)c3cnn4cccnc34)oc12)C(F)(F)F (single isomer, unassigned) [EXAMPLE 343, 2,2,2-Trifluoro-1-methoxyethyl 5-methyl-2-((pyrazolo[1,5-a]pyrimidine-3-carboxamido)methyl)benzofuran-7-carboxylate]
		2.6 µM	2.6 µM	COC(=O)c1cc(Cl)cc2cc(CNC(=O)c3cnn4ccc(C)nc34)oc12 [Example 54, Methyl 5-chloro-2-((5-methylpyrazolo[1,5-a]pyrimidine-3-carboxamido)methyl) benzofuran-7-carboxylate]
4 µM	4 µM			O=C(Cc1cc(F)cc2cc(CNC(=O)c3cnn4cccnc34)oc12)OCC(F)(F)F [EXAMPLE 366, 2,2,2-Trifluoroethyl 2-(5-fluoro-2-((pyrazolo[1,5-a]pyrimidine-3-carboxamido)methyl)benzofuran-7-yl)acetate]
3.5 µM	3.2 µM			O=C(OCC(F)(F)F)c1cc(F)cc2cc(Cn3cnc4ccncc4c3=O)oc12 [EXAMPLE 363, 2,2,2-Trifluoroethyl 5-fluoro-2-((4-oxopyrido[4,3-d]pyrimidin-3(4H)-yl)methyl)benzofuran-7-carboxylate]
7.6 µM	8.3 µM			Cc1cc(C(=O)O[C@H](C)C(F)(F)F)c2oc(C(C)NC(=O)c3cnn4cccnc34)c(Cl)c2c1 (stereo partly drawn) [EXAMPLE 304, (R)-1,1,1-Trifluoropropan-2-yl 3-chloro-5-methyl-2-(1-(pyrazolo[1,5-a]pyrimidine-3-carboxamido)ethyl)benzofuran-7-carboxylate]
12 µM	17 µM			O=C(NCc1cc2cccc(C(=O)OCC(F)(F)F)c2o1)c1cnccn1 [EXAMPLE 216, 2,2,2-Trifluoroethyl 2-((pyrazine-2-carboxamido)methyl)benzofuran-7-carboxylate]
2 µM	1.9 µM			O=C(OC1CCCCC1)c1cc(Cl)cc2cc(CNC(=O)c3cnn4cccnc34)oc12 [EXAMPLE 244, Cyclohexyl 5-chloro-2-((pyrazolo[1,5-a]pyrimidine-3-carboxamido)methyl)benzofuran-7-carboxylate]
108 µM	138 µM			Cc1cc(C(=O)O)c2oc(C(C)NC(=O)c3cnn4cccnc34)cc2c1 (racemic) [EXAMPLE 161, 5-Methyl-2-(1-(pyrazolo[1,5-a]pyrimidine-3-carboxamido)ethyl)benzofuran-7-carboxylic acid (racemic)]
30 µM	36 µM			O=C(Cc1cc(Br)cc2cc(CNC(=O)c3cnn4cccnc34)oc12)OCC(F)(F)F [EXAMPLE 270, 2,2,2-Trifluoroethyl 2-(5-bromo-2-((pyrazolo[1,5-a]pyrimidine-3-carboxamido)methyl)benzofuran-7-yl)acetate]
